Assay results reported in US20250353891A1 (MEDIMMUNE LIMITED, priority 2022, published 2025).
Starred links: 1 amine or outer side, 2 acyl side, 3 side chain; linkers in the order of their positions; H or OH if unused. Non-standard residues stand in square brackets, D forms with d. Residues, ends and D or L forms follow the SMILES beside them. Groups on a side chain read outwards from the residue. *: point of attachment. C20 diacid = O=C(O)CCCCCCCCCCCCCCCCCCC(=O)*; γGlu = O=C(O)[C@H](CCC(=O)[*:2])N[*:1]; αMeF = C[C@](N)(Cc1ccccc1)C(=O)O; AEEA = NCCOCCOCC(=O)O; Aib = CC(C)(N)C(=O)O

Experiments:
[1] = biological target: human GLP-1 receptor (hGLP-1R) (Homo sapiens, UniProt P43220); assay: cAMP production (HTRF) in CHO cells expressing hGLP-1R; assay type: cell-based; set-up: expressed in transfected cells; conditions: for EC50: Table 7, peptides modified at position 20, cAMP in CHO hGLP-1R cells, geometric mean, read-out: hGLP-1R EC50; for % Relative Potency Ratio: Table 7, % GLP-1R activity relative to GLP-1 / % GlucR activity relative to glucagon
human GLP-1 receptor (hGLP-1R), sequence (P43220 24-463): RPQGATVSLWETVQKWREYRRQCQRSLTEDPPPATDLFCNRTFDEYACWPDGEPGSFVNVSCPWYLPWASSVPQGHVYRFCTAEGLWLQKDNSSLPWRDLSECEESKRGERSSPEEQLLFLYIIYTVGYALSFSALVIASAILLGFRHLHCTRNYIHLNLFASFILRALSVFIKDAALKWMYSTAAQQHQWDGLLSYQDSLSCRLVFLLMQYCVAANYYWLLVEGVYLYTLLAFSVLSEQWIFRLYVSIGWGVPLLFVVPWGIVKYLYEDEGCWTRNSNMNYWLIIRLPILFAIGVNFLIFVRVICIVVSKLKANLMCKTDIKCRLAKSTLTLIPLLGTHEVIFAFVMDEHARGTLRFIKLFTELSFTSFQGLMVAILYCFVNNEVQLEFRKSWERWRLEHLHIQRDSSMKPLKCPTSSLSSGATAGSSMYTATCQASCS
Method in brief: (§1)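 Read-out: HTRF cAMP (anti-cAMP cryptate donor, cAMP-d2 acceptor in conjugate/lysis buffer), converted to % Delta F and fitted by 4-parameter logistic for EC50. Cell densities were 1×10^5 cells/mL (hGLP-1R) or 2×10^5 cells/mL (hGCGR). Stimulation lasted 30 min at room temperature.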

[2] = biological target: human glucagon receptor (hGCGR) (Homo sapiens, UniProt P47871); assay: cAMP production (HTRF) in CHO cells expressing hGCGR; assay type: cell-based; set-up: expressed in transfected cells; conditions: Table 7, peptides modified at position 20; cAMP in CHO hGCGR cells; geometric mean; read-out: hGluc-R EC50
human glucagon receptor (hGCGR), sequence (P47871 26-477): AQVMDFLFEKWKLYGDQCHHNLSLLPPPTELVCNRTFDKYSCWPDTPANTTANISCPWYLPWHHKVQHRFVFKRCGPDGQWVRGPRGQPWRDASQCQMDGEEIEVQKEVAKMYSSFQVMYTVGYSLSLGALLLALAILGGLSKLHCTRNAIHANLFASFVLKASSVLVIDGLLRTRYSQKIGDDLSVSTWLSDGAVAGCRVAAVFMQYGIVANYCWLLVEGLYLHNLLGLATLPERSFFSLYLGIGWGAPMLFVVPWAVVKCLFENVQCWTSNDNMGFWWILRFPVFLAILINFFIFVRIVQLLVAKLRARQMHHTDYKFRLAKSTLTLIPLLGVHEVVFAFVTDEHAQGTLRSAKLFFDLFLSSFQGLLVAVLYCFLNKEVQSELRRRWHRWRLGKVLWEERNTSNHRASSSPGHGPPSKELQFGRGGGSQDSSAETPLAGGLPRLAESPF
Method in brief: as §1

SMILES	EC50 [1] [nM]	% Relative Potency Ratio [1]	EC50 [2] [nM]
CC[C@H](C)[C@H](NC(=O)C(C)(C)NC(=O)[C@H](CCC(N)=O)NC(=O)[C@@H](NC(=O)[C@](C)(Cc1ccccc1)NC(=O)[C@H](CC(=O)O)NC(=O)[C@H](CCCCNC(=O)CC[C@H](NC(=O)CC[C@H](NC(=O)CCCCCCCCCCCCCCCCCCC(=O)O)C(=O)O)C(=O)O)NC(=O)[C@H](C)NC(=O)[C@H](C)NC(=O)[C@H](CCCNC(=N)N)NC(=O)[C@H](CO)NC(=O)[C@H](CC(=O)O)NC(=O)[C@H](CC(C)C)NC(=O)[C@](C)(Cc1ccccc1)NC(=O)[C@H](CCCCN)NC(=O)[C@H](CO)NC(=O)[C@@H](NC(=O)[C@H](CC(=O)O)NC(=O)[C@H](CO)NC(=O)[C@@H](NC(=O)[C@](C)(Cc1ccccc1)NC(=O)[C@H](CO)NC(=O)CNC(=O)[C@H](Cc1c[nH]cn1)NC(=O)C(C)(C)NC(=O)[C@@H](N)Cc1c[nH]cn1)[C@@H](C)O)C(C)C)C(C)C)C(=O)N[C@@H](C)C(=O)N[C@@H](CC(N)=O)C(=O)N[C@H](C(N)=O)[C@@H](C)O [Peptide 275] (H-H[Aib]HGS[αMeF]TSDVSK[αMeF]LDSRAAK([γGlu-γGlu-C20 diacid])D[αMeF]VQ[Aib]IANT-NH2)	0.111	3.1	0.175
CC[C@H](C)[C@H](NC(=O)C(C)(C)NC(=O)[C@H](CCC(N)=O)NC(=O)[C@@H](NC(=O)[C@](C)(Cc1ccccc1)NC(=O)[C@H](CC(=O)O)NC(=O)[C@H](CCCCNC(=O)CC[C@H](NC(=O)CCCCCCCCCCCCCCCCCCC(=O)O)C(=O)O)NC(=O)[C@H](C)NC(=O)[C@H](C)NC(=O)[C@H](CCCNC(=N)N)NC(=O)[C@H](CO)NC(=O)[C@H](CC(=O)O)NC(=O)[C@H](CC(C)C)NC(=O)[C@](C)(Cc1ccccc1)NC(=O)[C@H](CCCCN)NC(=O)[C@H](CO)NC(=O)[C@@H](NC(=O)[C@H](CC(=O)O)NC(=O)[C@H](CO)NC(=O)[C@@H](NC(=O)[C@](C)(Cc1ccccc1)NC(=O)[C@H](CO)NC(=O)CNC(=O)[C@H](Cc1c[nH]cn1)NC(=O)C(C)(C)NC(=O)[C@@H](N)Cc1c[nH]cn1)[C@@H](C)O)C(C)C)C(C)C)C(=O)N[C@@H](C)C(=O)N[C@@H](CC(N)=O)C(=O)N[C@H](C(N)=O)[C@@H](C)O [Peptide 276] (H-H[Aib]HGS[αMeF]TSDVSK[αMeF]LDSRAAK([γGlu-C20 diacid])D[αMeF]VQ[Aib]IANT-NH2)	0.143	1.3	0.0914
CC[C@H](C)[C@H](NC(=O)C(C)(C)NC(=O)[C@H](CCC(N)=O)NC(=O)[C@@H](NC(=O)[C@](C)(Cc1ccccc1)NC(=O)[C@H](CC(=O)O)NC(=O)[C@H](CCCCNC(=O)COCCOCCNC(=O)COCCOCCNC(=O)CCCCCCCCCCCCCCCCCCC(=O)O)NC(=O)[C@H](C)NC(=O)[C@H](C)NC(=O)[C@H](CCCNC(=N)N)NC(=O)[C@H](CO)NC(=O)[C@H](CC(=O)O)NC(=O)[C@H](CC(C)C)NC(=O)[C@](C)(Cc1ccccc1)NC(=O)[C@H](CCCCN)NC(=O)[C@H](CO)NC(=O)[C@@H](NC(=O)[C@H](CC(=O)O)NC(=O)[C@H](CO)NC(=O)[C@@H](NC(=O)[C@](C)(Cc1ccccc1)NC(=O)[C@H](CO)NC(=O)CNC(=O)[C@H](Cc1c[nH]cn1)NC(=O)C(C)(C)NC(=O)[C@@H](N)Cc1c[nH]cn1)[C@@H](C)O)C(C)C)C(C)C)C(=O)N[C@@H](C)C(=O)N[C@@H](CC(N)=O)C(=O)N[C@H](C(N)=O)[C@@H](C)O [Peptide 277] (H-H[Aib]HGS[αMeF]TSDVSK[αMeF]LDSRAAK([AEEA-AEEA-C20 diacid])D[αMeF]VQ[Aib]IANT-NH2)	0.0495	2.3	0.0573
CC[C@H](C)[C@H](NC(=O)C(C)(C)NC(=O)[C@H](CCC(N)=O)NC(=O)[C@@H](NC(=O)[C@](C)(Cc1ccccc1)NC(=O)[C@H](CC(=O)O)NC(=O)[C@H](CCCCNC(=O)COCCOCCNC(=O)CCCCCCCCCCCCCCCCCCC(=O)O)NC(=O)[C@H](C)NC(=O)[C@H](C)NC(=O)[C@H](CCCNC(=N)N)NC(=O)[C@H](CO)NC(=O)[C@H](CC(=O)O)NC(=O)[C@H](CC(C)C)NC(=O)[C@](C)(Cc1ccccc1)NC(=O)[C@H](CCCCN)NC(=O)[C@H](CO)NC(=O)[C@@H](NC(=O)[C@H](CC(=O)O)NC(=O)[C@H](CO)NC(=O)[C@@H](NC(=O)[C@](C)(Cc1ccccc1)NC(=O)[C@H](CO)NC(=O)CNC(=O)[C@H](Cc1c[nH]cn1)NC(=O)C(C)(C)NC(=O)[C@@H](N)Cc1c[nH]cn1)[C@@H](C)O)C(C)C)C(C)C)C(=O)N[C@@H](C)C(=O)N[C@@H](CC(N)=O)C(=O)N[C@H](C(N)=O)[C@@H](C)O [Peptide 278] (H-H[Aib]HGS[αMeF]TSDVSK[αMeF]LDSRAAK([AEEA-C20 diacid])D[αMeF]VQ[Aib]IANT-NH2)	0.0789	2.1	0.0835
CC[C@H](C)[C@H](NC(=O)C(C)(C)NC(=O)[C@H](CCC(N)=O)NC(=O)[C@@H](NC(=O)[C@](C)(Cc1ccccc1)NC(=O)[C@H](CC(=O)O)NC(=O)[C@H](CCCCNC(=O)COCCOCCNC(=O)CC[C@H](NC(=O)CC[C@H](NC(=O)CCCCCCCCCCCCCCCCCCC(=O)O)C(=O)O)C(=O)O)NC(=O)[C@H](C)NC(=O)[C@H](C)NC(=O)[C@H](CCCNC(=N)N)NC(=O)[C@H](CO)NC(=O)[C@H](CC(=O)O)NC(=O)[C@H](CC(C)C)NC(=O)[C@](C)(Cc1ccccc1)NC(=O)[C@H](CCCCN)NC(=O)[C@H](CO)NC(=O)[C@@H](NC(=O)[C@H](CC(=O)O)NC(=O)[C@H](CO)NC(=O)[C@@H](NC(=O)[C@](C)(Cc1ccccc1)NC(=O)[C@H](CO)NC(=O)CNC(=O)[C@H](Cc1c[nH]cn1)NC(=O)C(C)(C)NC(=O)[C@@H](N)Cc1c[nH]cn1)[C@@H](C)O)C(C)C)C(C)C)C(=O)N[C@@H](C)C(=O)N[C@@H](CC(N)=O)C(=O)N[C@H](C(N)=O)[C@@H](C)O [Peptide 279] (H-H[Aib]HGS[αMeF]TSDVSK[αMeF]LDSRAAK([AEEA-γGlu-γGlu-C20 diacid])D[αMeF]VQ[Aib]IANT-NH2)	0.0865	3.4	0.15
CC[C@H](C)[C@H](NC(=O)C(C)(C)NC(=O)[C@H](CCC(N)=O)NC(=O)[C@@H](NC(=O)[C@](C)(Cc1ccccc1)NC(=O)[C@H](CC(=O)O)NC(=O)[C@H](CCCCNC(=O)COCCOCCNC(=O)COCCOCCNC(=O)CC[C@H](NC(=O)CCCCCCCCCCCCCCCCCCC(=O)O)C(=O)O)NC(=O)[C@H](C)NC(=O)[C@H](C)NC(=O)[C@H](CCCNC(=N)N)NC(=O)[C@H](CO)NC(=O)[C@H](CC(=O)O)NC(=O)[C@H](CC(C)C)NC(=O)[C@](C)(Cc1ccccc1)NC(=O)[C@H](CCCCN)NC(=O)[C@H](CO)NC(=O)[C@@H](NC(=O)[C@H](CC(=O)O)NC(=O)[C@H](CO)NC(=O)[C@@H](NC(=O)[C@](C)(Cc1ccccc1)NC(=O)[C@H](CO)NC(=O)CNC(=O)[C@H](Cc1c[nH]cn1)NC(=O)C(C)(C)NC(=O)[C@@H](N)Cc1c[nH]cn1)[C@@H](C)O)C(C)C)C(C)C)C(=O)N[C@@H](C)C(=O)N[C@@H](CC(N)=O)C(=O)N[C@H](C(N)=O)[C@@H](C)O [Peptide 280] (H-H[Aib]HGS[αMeF]TSDVSK[αMeF]LDSRAAK([AEEA-AEEA-γGlu-C20 diacid])D[αMeF]VQ[Aib]IANT-NH2)	0.0783	3.9	0.155
